Assay results taken from patent US9351971B2, “Substituted 2,2′-biphenazines for treating diseases” (Eutropics Pharmaceuticals, Inc., priority 2010, dated 2016).

Tests used:
[1] = biological target: T1, Mcl-1 (Homo sapiens, UniProt Q07820); experiment: Fluorescence polarization assay, Bim BH3 peptide binding to GST-Mcl-1
T1 construct: made in house; host or cells: E. coli
Excerpt: (§1) A nineteen amino acid peptide, corresponding to the BH3 domain of Bim, with the sequence FITC-GGGIAQELRRIGDEFNAY (SEQ ID NO: 1) was labeled with the tluorophore FITC according to the manufacturer's instructions (Molecular Probes, Eugene, Oreg.). This sequence was identified as being able to bind to purified Bcl-xL protein (Sattler et al. (1997) Science 275(5302): 983-86) and to have biological activity in cells (Holinger et al. J. Biol. Chem. 274; 13298-1330).
(§2) In addition, recombinant GST -Mcl-1 and GST-Bcl-xL fusion proteins were generated in E.coli and purified using glutathione-sepharose beads using conventional techniques known to those skilled in the fields of biochemistry and molecular biology, (methods for preparation are described in Strategies for Protein Purification and Characterization, Marshak, D, Kadonga, J, Burgess R, Knuth, M, Brennan, W, Sue-Hwa, L, CSH press, Cold Spring Harbor, N.Y.). Binding of the recombinant proteins to the fluorescent Bim BH3 domain was confirmed by titration of increasing concentrations of the recombinant proteins against a constant amount of labeled Bim peptide (16.65 nM). Quantitation of binding was accomplished by FP assay with mP measurements made on the Analyst-GT reader (Molecular Devices, Sunnyvale, Calif.).
Further, the ability of compound A to disrupt the interaction between the fluorescent Bim BH3 peptide and the two fusion proteins was assessed using a fluorescence polarization assay. The Bim peptide (in solution at 4 nano-Molar) and either GST-Mcl-1 (in solution at 12.5 nM) or GST-Bcl-xL (in solution at 11.8 nM) were first combined together in phosphate buttered saline buffer, and then the compound solution in DMSO was added to final concentrations ranging from 10 μM to 0.1 nM). Normally the unbound Bim polypeptide results in polarization of 5 mP units. Upon binding of the GST-Bcl-xL and GST-Mcl-1 fusion protein, polarization increased to 100 mP units.
(§3) Experiments are performed using the fluorescence polarization assay as described in Example 2. Either Bcl-xL or Mcl-1 fusion proteins were titrated and maximum mp shift indicate binding concentrations for drug titration studies, as described in Example 2. Compound II-19, was titrated from 10 μM to 0.1 nM in 2 fold serial dilution into the peptide/protein solution. The IC50 for blocking each BH3 peptide from Mcl-1 are assessed using FP, as described in Example 2.
as §3, with “Either GST-Bcl-xL” for “Either Bcl-xL”, “or GST-Mcl-1” for “or Mcl-1”, “Compound II-20,” for “Compound II-19,”, “in 2-fold” for “in 2 fold”

[2] = biological target: T2, Bcl-xL (Homo sapiens, UniProt Q07817); experiment: Fluorescence polarization assay, Bim BH3 peptide binding to GST-Bcl-xL; conditions: Bim-BH3-FITC peptide, read-out: IC50, inhibition of Bim-BH3 peptide binding to Bcl-xL
T2 construct: made in house; host or cells: E. coli
T2 sequence (Q07817 whole entry): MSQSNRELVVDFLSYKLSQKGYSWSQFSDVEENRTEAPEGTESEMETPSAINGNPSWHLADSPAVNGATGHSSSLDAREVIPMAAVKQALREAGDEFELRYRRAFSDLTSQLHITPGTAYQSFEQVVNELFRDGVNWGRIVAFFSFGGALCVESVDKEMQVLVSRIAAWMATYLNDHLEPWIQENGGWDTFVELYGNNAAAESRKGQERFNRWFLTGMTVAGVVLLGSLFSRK
Excerpt: as §1, §2
Further, the ability of compound A to disrupt the interaction between the fluorescent Bim BH3 peptide and the two fusion proteins was assessed using a fluorescence polarization assay. […]
(§4) Experiments are performed using the fluorescence polarization assay as described in Example 2. […] The IC50 for blocking each BH3 peptide from Mcl-1 are assessed using FP, as described in Example 2.
as §4

[3] = test system: SUDHL-6 lymphoid cell line; experiment: Cell viability MTS assay, SUDHL-6; format: cell-based; conditions: Homo sapiens, SU-DHL-6, 48 hours, read-out: EC50, cell killing in SUDHL-6
Method: The lymphoid derived cell lines DHL-6 and DHL-10 were obtained from Anthony Letai of the Dana Father Cancer Research Institute, Boston, Mass. The […] derived cell line NCP-H929 was obtained irons, the NIH/NCI cell repository. AML-3 cells were obtained from Dr. Michael Andreef (MD Anderson Cancer Center, Houston, Tex.). Cells were grown in RPMI 1640 medium (GIBCO-BRL) supplemented with Pen-strep-glutamine (Gibco 10378) and 5% fetal bovine serum.
Cells were expanded in tissue culture in appropriate media and then subcultured into 96-well plates at a seeding density of 20,000-40,000 cells per well, and cells were treated with one or more compounds that were titrated info appropriate medium with FCS. Cell lines were treated with compound A at concentrations ranging from 25 μM to 25 nM. The BH3-mimetic obatoclax (Nguyen M et al. (2007), Proc. Natl. Acad. Sci. USA 104:19512-19517) was also tested against the SUDHL-6, SUDHL-10, and NCI-H929 cell lines. Cells were treated for 48 hours and scored for viability using the MTS assay (Promega). Growth inhibition was indicated as a percentage of control cell growth. Growth was determined by measuring the A570 (control cells)—A570 (treated cells)/A570 (control cells). EC50 values were calculated using Graphpad Prizm software.

[4] = Pharmacokinetics of compound II-19 i.p. in male ICR mice; format: in vivo, mouse; conditions: 10 mg/kg
Method: FIG. 11 is a graph of the pharmacokinetics of compound II-19 clearance in mouse plasma. Pharmacokinetic profile of Compound II-19 in. male ICR mice is shown. Compound II-19 was dissolved in 5% DMSO, 15% hydroxypropyl-beta-cyclodexmain, and 50 mM Tris in water to yield a nominal concentration of 5 mg/mL. This solution was administered intraperintoncally to […] male ICR mice at a dose of 10 mg/kg. Three mice in each group were used for blood, collection, at each of 8 time points: 5 minutes, 0.25 hrs, 0.5 hrs, 1 hr, 2 hrs, 4 hrs, 8 hrs, and 24 hrs postdose. Plasma samples at these time points were analyzed for the quantity of compound II-19 by standard liquid chromatography/mass spectroscopy methods.
Pharmacokinetic studies were conducted on compound II-19 to assess plasma clearance and distribution in male ICR mice. Compounds were administered i.p. (as in the xenograft study, Example 8) at 10 mg/kg. Blood samples were collected at various time points (pre-injection, 5 min, 15 min, 30 min, 1 h, 2 h, 4 h, 8 h and 24 h), and centrifuged to remove red blood cells. […] Plasma levels of drug were quantified by LC-MS (C18 column elided with linear gradient from 0% acetonitrile, 1% formic acid to 100% acetonitrile, 1% formic acid) against a set of standards prepared by diluting a known quantity of II-19 into mouse plasma.

T1 sequence (Q07820 whole entry): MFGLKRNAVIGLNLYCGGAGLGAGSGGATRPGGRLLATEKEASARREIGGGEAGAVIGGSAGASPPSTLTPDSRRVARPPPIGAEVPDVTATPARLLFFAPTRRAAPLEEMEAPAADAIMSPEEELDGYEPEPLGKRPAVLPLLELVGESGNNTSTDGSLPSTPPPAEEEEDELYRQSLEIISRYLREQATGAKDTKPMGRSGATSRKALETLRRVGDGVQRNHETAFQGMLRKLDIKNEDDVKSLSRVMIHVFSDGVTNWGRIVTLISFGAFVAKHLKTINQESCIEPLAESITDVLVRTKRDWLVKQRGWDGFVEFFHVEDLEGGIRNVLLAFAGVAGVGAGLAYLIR

Question: With `COC(=O)c1ccc(O)c2nc3c(C=O)c(O)c(-c4c(O)c(C=O)c5nc6c(O)ccc(C(=O)OC)c6nc5c4O)c(O)c3nc12` [II-19, dimethyl 4,4′-diformyl-1,1′,3,3′,6,6′-hexahydroxy-[2,2′-biphenazine]-9,9′-dicarboxylate] as the compound, how does the IC50 ([1]; fluorescence polarization, Bim-BH3-FITC peptide, GST-Mcl-1, read-out: IC50, inhibition of Bim-BH3 peptide binding to Mcl-1) read?
Answer: Its IC50 is 7 nM.

Question: What about the “preference for inhibition of Mcl-1 vs. Bcl-xL” value ([1]; ratio of FP IC50 values) of the same compound?
Answer: Its value is 2 fold.

Question: And the IC50 [2]?
Answer: The IC50 was 15 nM.

Question: And the EC50 [3]?
Answer: The EC50 was 3000 nM.

Question: And the “time for which circulating drug levels can be sustained” value [4]?
Answer: The value was greater than 24 h.

Question: And the half-life ([4]; mouse, plasma, ip)?
Answer: Its half-life is greater than 20 h.
